US20250177533A1, “PHOTODYNAMIC THERAPY AND DIAGNOSIS” (RMW CHO Group Limited, priority 2021, published 2025)
Like-named read-outs stand apart in the source and are kept apart here.

Columns and labels:
[1] = test system: Human ovarian cancer cell line SKOV3; settings: 24 h
[2] = test system: Human ovarian cancer cell line SKOV3; assay: Phototoxicity in SKOV3 cells (660 nm laser or LED, AlamarBlue viability); assay type: cell-based; settings: Homo sapiens, SK-OV-3, light or radiation study, SKOV3, 24 h uptake, viability 24 h later
Description: All data are shown as mean±SD (where appropriate).
Media was then replaced with fresh media containing AlamarBlue, and % viable cells remaining assessed as above. […] All measurements were made in quadruplicate.

[3] = 660 nm laser 50 mW/cm^2 for 5 mins (15 J/cm^2), read-out: Phototoxicity μM (IC90)
[4] = 660 nm LED panel 50 mW/cm^2 for 5 mins (15 J/cm^2), read-out: Phototoxicity μM (IC90), measured by LED

Q: `CCC1=C(C)c2cc3[nH]c(cc4nc(c(C)c5cc(C)c(cc1n2)[nH]5)[C@@H](CCCO)[C@@H]4C)c(C)c3CO[C@@H]1O[C@H](CO)[C@@H](O)[C@H](O)[C@H]1O` [Compound 35, phyllochlorin 3-hydroxypropyl-13-hydroxymethyl-β-D-glucoside ether] was tested. Which “Dark toxicity μM (IC10)” value [1] did it give?
A: 1.651 µM

Q: What about the IC90 [2, 3] of the same molecule?
A: 0.0467 µM

Q: What does the source list for `CCC1=C(C)c2cc3[nH]c(cc4nc(c(C)c5cc(C)c(cc1n2)[nH]5)[C@@H](CCC(=O)N(C)CCOCCOCCOCCOCCOCCOC)[C@@H]4C)c(C)c3CO` [Compound 24, phyllochlorin 13-hydroxymethyl N-methyl-N-3,6,9,12,15,18-hexaoxanonadecyl propylamide]?
A: Dark toxicity μM (IC10) [1]: 41.190 µM; IC90 [2, 3]: 0.503 µM

Q: Which “Dark toxicity μM (IC10)” value [1] does the source give for `CCC1=C(C)c2cc3[nH]c(cc4nc(c(C)c5cc(C)c(cc1n2)[nH]5)[C@@H](CCC(=O)N(C)CCCO[C@@H]1O[C@H](CO)[C@@H](O)[C@H](O)[C@H]1O)[C@@H]4C)c(C)c3CO[C@@H]1O[C@H](CO)[C@@H](O)[C@H](O)[C@H]1O` [Compound 12, phyllochlorin 13-hydroxymethyl-β-D-glucoside ether-β-D-glucosyl-N-methylpropylamide] here?
A: 2.466 µM

Q: What about the IC90 [2, 3] of the same molecule?
A: 0.353 µM

Q: `CCC1=C(C)c2cc3[nH]c(cc4nc(c(C)c5cc(C)c(cc1n2)[nH]5)[C@@H](CCC(=O)N(C)CCCS[C@@H]1O[C@H](CO)[C@@H](O)[C@H](O)[C@H]1O)[C@@H]4C)c(C)c3C(C)O` (stereo partly drawn) [Compound 26, 13-hydroxyethylphyllochlorin-β-D-1-thioglucose-N-methylpropylamide] was tested. Which “Dark toxicity μM (IC10)” value [1] did it give?
A: 21.550 µM

Q: What about the IC90 [2, 3] of the same molecule?
A: 0.248 µM

Q: With `CCC1=C(C)c2cc3[nH]c(cc4nc(c(C)c5cc(C)c(cc1n2)[nH]5)[C@@H](CCC(=O)OC)[C@@H]4C)c(C)c3C=O` [Compound 30, phyllochlorin 13-formyl methyl ester] as the molecule, how does the “Dark toxicity μM (IC10)” value [1] read?
A: 45.760 µM

Q: What about the IC90 [2, 3] of the same molecule?
A: 2.27 µM

Q: What does the source list for `CCC1=C(C)c2cc3[nH]c(cc4nc(c(C)c5cc(C)c(cc1n2)[nH]5)[C@@H](CCC(=O)NCCOCCO[C@@H]1O[C@H](CO)[C@@H](O)[C@H](O)[C@H]1O)[C@@H]4C)c(C)c3CO[C@@H]1O[C@H](CO)[C@@H](O)[C@H](O)[C@H]1O` [Compound 16, phyllochlorin 13-hydroxymethyl-β-D-glucoside ether-β-D-1-glucose-2-ethoxy-N-ethanamine]?
A: Dark toxicity μM (IC10) [1]: 5.929 µM; IC90 [2, 3]: 1.82 µM

Q: For `CCC1=C(C)c2cc3[nH]c(cc4nc(c(C)c5cc(C)c(cc1n2)[nH]5)[C@@H](CCC(=O)N(CCOCCOCCOC)CCOCCOCCOC)[C@@H]4C)c(C)c3CO[C@@H]1O[C@H](CO)[C@@H](O)[C@H](O)[C@H]1O` [Compound 14, phyllochlorin 13-hydroxymethyl-β-D-glucoside ether-N,N-bis-PEG3OMe propylamide], which “Dark toxicity μM (IC10)” value [1] is on record?
A: 0.626 µM

Q: And the IC90 [2, 3]?
A: 0.186 µM

Q: What does the source list for `CCC1=C(C)c2cc3[nH]c(cc4nc(c(C)c5cc(C)c(cc1n2)[nH]5)[C@@H](CCC(=O)OC)[C@@H]4C)c(C)c3C(C)OCCOCC[P+](c1ccccc1)(c1ccccc1)c1ccccc1` (some centres unmarked) [Compound 23, phyllochlorin methyl ester 2-(2-triphenylphosphoniumethoxy)ethyl ether chloride]?
A: Dark toxicity μM (IC10) [1]: 3.086 µM; IC90 [2, 3]: 0.012 µM

Q: `CCC1=C(C)c2cc3[nH]c(cc4nc(c(C)c5cc(C)c(cc1n2)[nH]5)[C@@H](CCC(=O)OC)[C@@H]4C)c(C)c3CO[C@@H]1O[C@H](CO)[C@@H](O[C@H]2O[C@H](CO)[C@@H](O)[C@H](O)[C@H]2O)[C@H](O)[C@H]1O` [Compound 8, phyllochlorin 13-hydroxymethyl-β-D-maltose ether methyl ester] was tested. Which “Dark toxicity μM (IC10)” value [1] did it give?
A: 7.442 µM

Q: What about the IC90 [2, 3] of the same molecule?
A: 0.665 µM

Q: How did the “Dark toxicity μM (IC10)” value [1] turn out when `CCC1=C(C)c2cc3[nH]c(cc4nc(c(C)c5cc(C)c(cc1n2)[nH]5)[C@@H](CCC(=O)OC)[C@@H]4C)c(C)c3CO` [Compound 3, phyllochlorin 13-hydroxymethyl methyl ester] was run?
A: 45.720 µM

Q: What about the IC90 [2, 3] of the same molecule?
A: 0.308 µM

Q: `CCC1=C(C)c2cc3[nH]c(cc4nc(c(C)c5cc(C)c(cc1n2)[nH]5)[C@@H](CCC(=O)N(C)CCCOCCC[P+](c1ccccc1)(c1ccccc1)c1ccccc1)[C@@H]4C)c(C)c3CO[C@@H]1O[C@H](CO)[C@@H](O)[C@H](O)[C@H]1O` [Compound 19] was tested. Which “Dark toxicity μM (IC10)” value [1] did it give?
A: 0.090 µM

Q: And the IC90 [2, 3]?
A: 0.018 µM

Q: What does the source list for `CCC1=C(C)c2cc3[nH]c(cc4nc(c(C)c5cc(C)c(cc1n2)[nH]5)[C@@H](CCC(=O)OC)[C@@H]4C)c(C)c3C(C)OCCC[n+]1ccccc1` (some centres unmarked) [Compound 20, phyllochlorin methyl ester 3-pyridinium bromide propyl ether]?
A: Dark toxicity μM (IC10) [1]: 1.998 µM; IC90 [2, 3]: 0.003 µM

Q: Which results are given for `CCC1=C(C)c2cc3[nH]c(cc4nc(c(C)c5cc(C)c(cc1n2)[nH]5)[C@@H](CCC(=O)N(C)CCCO)[C@@H]4C)c(C)c3C(C)OCCCS[C@@H]1O[C@H](CO)[C@@H](O)[C@H](O)[C@H]1O` (stereo partly drawn) [Compound 2, phyllochlorin N-3-hydroxypropyl-N-methyl propylamide propyloxythio-D-glucose]?
A: Dark toxicity μM (IC10) [1]: 7.640 µM; IC90 [2, 3]: 0.03 µM

Q: Which results are given for `CCC1=C(C)c2cc3[nH]c(cc4nc(c(C)c5cc(C)c(cc1n2)[nH]5)[C@@H](CCC(=O)O)[C@@H]4C)c(C)c3C(C)O` (some centres unmarked) [Compound 27, phyllochlorin 13-(ethyl-1-alcohol)]?
A: Dark toxicity μM (IC10) [1]: 10.520 µM; IC90 [2, 3]: 0.397 µM

Q: What does the source list for `CCC1=C(C)c2cc3[nH]c(cc4nc(c(C)c5cc(C)c(cc1n2)[nH]5)[C@@H](CCC(=O)N(C)C[C@H](O)[C@@H](O)[C@H](O)[C@H](O)CO)[C@@H]4C)c(C)c3CO[C@@H]1O[C@H](CO)[C@@H](O)[C@H](O)[C@H]1O` [Compound 10, phyllochlorin N-meglumine-propylamide-13-hydroxymethyl-β-D-glucoside ether]?
A: Dark toxicity μM (IC10) [1]: 4.732 µM; IC90 [2, 3]: 1.5 µM

Q: With `CCC1=C(C)c2cc3[nH]c(cc4nc(c(C)c5cc(C)c(cc1n2)[nH]5)[C@@H](CCC(=O)OC)[C@@H]4C)c(C)c3CO[C@@H]1O[C@H](CO)[C@@H](O)[C@H](O)[C@H]1O` [Compound 4, phyllochlorin 13-hydroxymethyl-β-D-glucoside ether methyl ester] as the molecule, how does the “Dark toxicity μM (IC10)” value [1] read?
A: 0.775 µM

Q: And the IC90 [2, 3]?
A: 0.099 µM

Q: With `CCC1=C(C)c2cc3[nH]c(cc4nc(c(C)c5cc(C)c(cc1n2)[nH]5)[C@@H](CCC(=O)N(C)CCOCCOCCOC)[C@@H]4C)c(C)c3CO` [Compound 42, phyllochlorin 13-hydroxymethyl N-methyl-N-3,6,9-trioxadecyl propylamide] as the molecule, how does the “Dark toxicity μM (IC10)” value [1] read?
A: 4.252 µM

Q: What about the IC90 [2, 4] of the same molecule?
A: 0.245 µM

Q: Which “Dark toxicity μM (IC10)” value [1] does the source give for `CCC1=C(C)c2cc3[nH]c(cc4nc(c(C)c5cc(C)c(cc1n2)[nH]5)[C@@H](CCC(=O)O)[C@@H]4C)c(C)c3CO` [Compound 17, phyllochlorin 13-hydroxymethyl] here?
A: 25.000 µM

Q: What about the IC90 [2, 3] of the same molecule?
A: 0.891 µM

Q: For `CCC1=C(C)c2cc3[nH]c(cc4nc(c(C)c5cc(C)c(cc1n2)[nH]5)[C@@H](CCC(=O)N(C)CCOCCOCCOC)[C@@H]4C)c(C)c3COC(=O)NCCCCCC[P+](c1ccccc1)(c1ccccc1)c1ccccc1` [Compound 43, phyllochlorin 13-(6-(triphenylphosphonium bromide)hexyl)carbamate N-methyl-N-3,6,9-trioxadecyl propylamide], which “Dark toxicity μM (IC10)” value [1] is on record?
A: 0.5889 µM

Q: And the IC90 [2, 4]?
A: 0.0042 µM
